In US20160237059A1, “HETEROCYCLIC SUBSTITUTED TRIFLUOROMETHYL PYRIMIDINONES AND THEIR USE” (BAYER PHARMA AKTIENGESELLSCHAFT, priority 2013, published 2016):

Key:
Type in all cases: cell-based
human CCR2 = target: T1, human CCR2 (Homo sapiens, UniProt P41597); test: Functional Ca2+ release test (B-1); details: Chem-1 cell line transfected with human CCR2; 50% inhibition of the MCP-1 effect, MCP-1 at EC50 (about 5 nM); in some cases means of several determinations
T1 construct: host or cells: Chem-1 cell line
T1 sequence (P41597 1-360 isoform P41597-2): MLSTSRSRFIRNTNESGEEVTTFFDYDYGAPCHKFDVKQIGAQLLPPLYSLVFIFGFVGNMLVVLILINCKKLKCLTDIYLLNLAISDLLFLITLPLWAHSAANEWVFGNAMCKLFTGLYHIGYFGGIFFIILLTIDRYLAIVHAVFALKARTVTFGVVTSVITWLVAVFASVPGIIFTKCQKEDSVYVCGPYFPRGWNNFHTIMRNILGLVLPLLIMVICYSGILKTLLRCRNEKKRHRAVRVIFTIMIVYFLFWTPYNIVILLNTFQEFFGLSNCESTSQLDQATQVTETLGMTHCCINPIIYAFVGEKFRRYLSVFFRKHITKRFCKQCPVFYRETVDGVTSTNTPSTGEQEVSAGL
Procedure, shortened: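 Chem-1 cells expressing human CCR2, loaded with Fluo-4 for 60 min at 37° C, were preincubated 10 min with compound (10-point, 1:3.16 dilutions), then stimulated with MCP-1 at its predetermined EC50 (about 5 nM). Ca2+ release was monitored for 120 s. IC50 came from a 4-parameter Hill fit.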

murine CCR2 [1] = target: T2, murine CCR2 (Mus musculus, UniProt P51683); test: Functional β-arrestin recruiting test with human MCP-1 (B-2a); details: U2OS β-arrestin cell line transfected with murine CCR2; agonist human MCP-1 at EC50 (about 3 nM); in some cases means of several determinations
T2 construct: host or cells: U2OS β-arrestin cell line
T2 sequence (P51683 whole entry): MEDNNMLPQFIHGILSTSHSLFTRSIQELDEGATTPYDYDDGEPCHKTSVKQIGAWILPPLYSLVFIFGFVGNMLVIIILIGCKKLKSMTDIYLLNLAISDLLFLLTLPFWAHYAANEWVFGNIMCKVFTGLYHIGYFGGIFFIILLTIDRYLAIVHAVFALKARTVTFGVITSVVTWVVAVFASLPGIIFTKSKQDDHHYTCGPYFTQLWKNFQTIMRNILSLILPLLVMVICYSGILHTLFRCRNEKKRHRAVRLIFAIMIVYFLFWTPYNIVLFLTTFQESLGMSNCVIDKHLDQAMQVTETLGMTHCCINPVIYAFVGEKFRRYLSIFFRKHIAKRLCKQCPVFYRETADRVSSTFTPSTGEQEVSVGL
Procedure, shortened: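 Antagonist mode in U2OS cells expressing murine CCR2, read by PathHunter β-galactosidase complementation luminescence. Cells pre-incubated 10 min with 10-point compound dilutions (1:3.16 steps), then stimulated with human MCP-1 at its EC50 (usually about 3 nM) for 90 min at 37° C.; IC50 from 4-parameter logistic fit.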

murine CCR2 [2] = target: T2, murine CCR2; test: Functional β-arrestin recruiting test with murine MCP-1 (B-2b); details: U2OS β-arrestin cell line transfected with murine CCR2; agonist murine MCP-1; in some cases means of several determinations
Procedure, shortened: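 In a PathHunter β-galactosidase complementation assay, U2OS cells expressing murine CCR2 were preincubated 10 min with compound (10-point, 1:3.16 dilutions), then challenged with murine MCP-1 at its predetermined EC50 for 90 min at 37 °C. Luminescence was read after 60 min, and IC50 was fitted with a 4-parameter Hill function.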

IC50 (human CCR2) | IC50 (murine CCR2 [1]) | IC50 (murine CCR2 [2]) | Molecule
4.2 nM | 53 nM | 195 nM | O=c1[nH]c(-c2ncon2)nc(C(F)(F)F)c1Oc1ccc(Cl)c(Cl)c1 [compound 79, 5-(3,4-Dichlorophenoxy)-2-(1,2,4-oxadiazol-3-yl)-6-(trifluoromethyl)pyrimidin-4(3H)-one]
0.8 nM | 2.7 nM | 27 nM | Nc1cnn(-c2nc(C(F)(F)F)c(Oc3ccc(Cl)c(C(F)(F)F)c3)c(=O)[nH]2)c1 [Example 108, 2-(4-amino-1H-pyrazol-1-yl)-5-[4-chloro-3-(trifluoromethyl)phenoxy]-6-(trifluoromethyl)pyrimidin-4(3H)-one]
0.4 nM | 12 nM | 37 nM | O=c1[nH]c(-n2cccn2)nc(C(F)(F)F)c1Oc1ccc(Cl)c(C(F)(F)F)c1 [Example 73, 5-[4-chloro-3-(trifluoromethyl)phenoxy]-2-(1H-pyrazol-1-yl)-6-(trifluoromethyl)pyrimidin-4(3H)-one]
27 nM | 77 nM | 449 nM | O=c1[nH]c(Cc2ccno2)nc(C(F)(F)F)c1Oc1ccc(Cl)c(Cl)c1 [Example 95, 5-(3,4-dichlorophenoxy)-2-(1,2-oxazol-5-ylmethyl)-6-(trifluoromethyl)pyrimidin-4(3H)-one]
2.4 nM | 28 nM | 53 nM | Nc1cnn(-c2nc(C(F)(F)F)c(Cc3ccc(Cl)c(C(F)(F)F)c3)c(=O)[nH]2)c1 [Example 107, 2-(4-Amino-1H-pyrazol-1-yl)-5-[4-chloro-3-(trifluoromethyl)benzyl]-6-(trifluoromethyl)pyrimidin-4(3H)-one]
3 nM | 57 nM | 1080 nM | O=c1[nH]c(-n2cccn2)nc(C(F)(F)F)c1Cc1ccc(Cl)c(C(F)(F)F)c1 [Example 71, 5-[4-chloro-3-(trifluoromethyl)benzyl]-2-(1H-pyrazol-1-yl)-6-(trifluoromethyl)pyrimidin-4(3H)-one]
3.7 nM | 16 nM | 50 nM | O=c1[nH]c(-c2ncon2)nc(C(F)(F)F)c1Oc1ccc(Cl)c(C(F)(F)F)c1 [Example 78, 5-[4-Chloro-3-(trifluoromethyl)phenoxy]-2-(1,2,4-oxadiazol-3-yl)-6-(trifluoromethyl)pyrimidin-4(3H)-one]

Second part, the molecule before the results:

Molecule | IC50 (human CCR2) | IC50 (murine CCR2 [1]) | IC50 (murine CCR2 [2])
COc1cccnc1-c1nc(C(F)(F)F)c(Oc2ccc(Cl)c(C(F)(F)F)c2)c(=O)[nH]1 [Example 40, 5-[4-chloro-3-(trifluoromethyl)phenoxy]-2-(3-methoxypyridin-2-yl)-6-(trifluoromethyl)pyrimidin-4(3H)-one] | 0.8 nM | 12 nM | 44 nM
O=c1[nH]c(-c2ncccc2F)nc(C(F)(F)F)c1Cc1ccc(Cl)c(Cl)c1 [Example 17, 5-(3,4-dichlorobenzyl)-2-(3-fluoropyridin-2-yl)-6-(trifluoromethyl)pyrimidin-4(3H)-one] | 1.4 nM | 43 nM | 191 nM
5-(3,4-dichlorobenzyl-2-(3-methoxypyridin-2-yl)-6-(trifluoromethyl)pyrimidin-4(3H)-one [Example 23] | 0.4 nM | 25 nM | 135 nM
O=c1[nH]c(-c2ncc(F)cc2F)nc(C(F)(F)F)c1Oc1ccc(Cl)c(Cl)c1 [Example 4, 5-(3,4-dichlorophenoxy)-2-(3,5-difluoropyridin-2-yl)-6-(trifluoromethyl)pyrimidin-4(3H)-one] | 2.9 nM | 87 nM | 380 nM
Nc1cnn(-c2nc(C(F)(F)F)c(Oc3ccc(Cl)c(Cl)c3)c(=O)[nH]2)c1 [Example 47, 2-(4-Amino-1H-pyrazol-1-yl)-5-(3,4-dichlorophenoxy)-6-(trifluoromethyl)pyrimidin-4(3H)-one] | 1 nM | 3.6 nM | 95 nM
O=c1[nH]c(-c2ccccn2)nc(C(F)(F)F)c1Oc1ccc(Cl)c(Cl)c1 [Example 3, 5-(3,4-dichlorophenoxy)-2-(pyridin-2-yl)-6-(trifluoromethyl)pyrimidin-4(3H)-one] | 1.2 nM | 31 nM | 205 nM
O=c1[nH]c(-c2ncccc2Cl)nc(C(F)(F)F)c1Oc1ccc(Cl)c(Cl)c1 [Example 5, 2-(3-chloropyridin-2-yl)-5-(3,4-dichlorophenoxy)-6-(trifluoromethyl)pyrimidin-4(3H)-one] | 1 nM | 13 nM | 50 nM
O=c1[nH]c(-c2cc[nH]n2)nc(C(F)(F)F)c1Oc1ccc(Cl)c(Cl)c1 [Example 49, 5-(3,4-Dichlorophenoxy)-2-(1H-pyrazol-3-yl)-6-(trifluoromethyl)pyrimidin-4(3H)-one] | 0.6 nM | 2.5 nM | 12 nM
Cn1cnc(-c2nc(C(F)(F)F)c(Oc3ccc(Cl)c(C(F)(F)F)c3)c(=O)[nH]2)c1 [Example 59, 5-[4-chloro-3-(trifluoromethyl)phenoxy]-2-(1-methyl-1H-imidazol-4-yl)-6-(trifluoromethyl)pyrimidin-4(3H)-one] | 0.6 nM | 12 nM | 106 nM
COc1cccnc1-c1nc(C(F)(F)F)c(Oc2ccc(Cl)c(Cl)c2)c(=O)[nH]1 [Example 24, 5-(3,4-dichlorophenoxy)-2-(3-methoxypyridin-2-yl)-6-(trifluoromethyl)pyrimidin-4(3H)-one] | 0.4 nM | 8.2 nM | 54 nM
Cn1cnc(-c2nc(C(F)(F)F)c(Cc3ccc(Cl)c(Cl)c3)c(=O)[nH]2)c1 [Example 52, 5-(3,4-dichlorobenzyl)-2-(1-methyl-1H-imidazol-4-yl)-6-(trifluoromethyl)pyrimidin-4(3H)-one] | 1.3 nM | 85 nM | 439 nM
O=c1[nH]c(-c2cn[nH]c2)nc(C(F)(F)F)c1Oc1ccc(Cl)c(C(F)(F)F)c1 [Example 70, 5-[4-chloro-3-(trifluoromethyl)phenoxy]-2-(1H-pyrazol-4-yl)-6-(trifluoromethyl)pyrimidin-4(3H)-one] | 0.8 nM | 56 nM | 154 nM
Cc1ccc(-c2nc(C(F)(F)F)c(Oc3ccc(Cl)c(Cl)c3)c(=O)[nH]2)nc1 [Example 7, 5-(3,4-dichlorophenoxy)-2-(5-methylpyridin-2-yl)-6-(trifluoromethyl)pyrimidin-4(3H)-one] | 2.2 nM | 120 nM | 435 nM
O=c1[nH]c(-c2ncccc2F)nc(C(F)(F)F)c1Oc1ccc(Cl)c(C(F)(F)F)c1 [Example 39, 5-[4-chloro-3-(trifluoromethyl)phenoxy]-2-(3-fluoropyridin-2-yl)-6-(trifluoromethyl)pyrimidin-4(3H)-one] | 0.9 nM | 20 nM | 50 nM
O=c1[nH]c(-c2ncccc2Cl)nc(C(F)(F)F)c1Oc1ccc(F)c(Cl)c1 [Example 14, 5-(3-chloro-4-fluorophenoxy)-2-(3-chloropyridin-2-yl)-6-(trifluoromethyl)pyrimidin-4(3H)-one] | 11 nM | 25 nM | 260 nM
